Among the data in BindingDB's records for doi:10.1021/jm100984y (The University of Queensland, 2010) are EC50 values, retold here.

The target in the experiment is T1, Proteinase-activated receptor 2 (Homo sapiens, UniProt P55085).
T1 sequence (P55085 whole entry): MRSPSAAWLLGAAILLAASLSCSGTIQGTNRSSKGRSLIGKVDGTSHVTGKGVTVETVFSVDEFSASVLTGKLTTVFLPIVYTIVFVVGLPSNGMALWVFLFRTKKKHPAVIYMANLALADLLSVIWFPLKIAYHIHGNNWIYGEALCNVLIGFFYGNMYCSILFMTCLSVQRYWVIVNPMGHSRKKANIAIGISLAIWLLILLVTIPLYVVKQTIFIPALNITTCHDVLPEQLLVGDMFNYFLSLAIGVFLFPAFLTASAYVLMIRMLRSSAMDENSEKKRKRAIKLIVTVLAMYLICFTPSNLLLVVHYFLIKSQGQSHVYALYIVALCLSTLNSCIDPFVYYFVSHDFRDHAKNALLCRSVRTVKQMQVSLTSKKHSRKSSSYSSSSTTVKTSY
The experiment is described as follows: Agonist activity at PAR2 receptor in human HT-29 cells assessed as induction of intracellular calcium release. In general terms: Calcium flux is commonly read through the fluorescence of an indicator in the cells.

Turning to `CC[C@H](C)[C@H](NC(=O)[C@H](CC1CCCCC1)NC(=O)c1ccno1)C(=O)Nc1ccc(CC(=O)N2CCC(CN)CC2)cc1` [5-Isoxazoyl-Cha-Ile-4-aminophenyl-(4-[aminomethyl]piperidin-1-yl)ethan-2-one], the EC50 (commonly the concentration that produces a half-maximal response) came to 316 nM.
